# Assay results as given in article PMC11407758, “Integrated stress response (ISR) activation and apoptosis through HRI kinase by PG3 and other p53 pathway-restoring cancer therapeutics” (Oncotarget, 2024).
# Tests used:
# [1] = system: HCT116 (wild-type), SW480 (R273H, P309S), and DLD1 (S241F); test: Cell viability assay in colorectal cancer cell lines (Figure 1E); type: cell-based, human; conditions: 72 h
# Method: (§1) Figure 1 PG3 inhibits cell proliferation and growth in a p53-indepent manner. (A–E) Cell viability assay, dose response curves and IC50 value measurements in a panel of cancer cell lines and normal cells. Cells were treated with different concentrations of PG3, PG3-Oc (Oc), obatoclax (Ob), prodigiosin (P) or DMSO for 72 h. Luciferase activity was imaged by the IVIS Imaging System after treatment. Cell viability data were normalized to those of DMSO treatment control in each cell line and data analyses were performed using PRISM4 software. IC50 data are expressed as the mean ±SD (normal; n = 3).
# (§2) Cells were seeded in 96-well plates (6 × 10^3 cells/well). Cells were treated with different concentrations of compounds or dimethyl sulfoxide (DMSO) as a control for 72 hours. The cell viability was assessed by CellTiterGlo bioluminescent cell viability assay (Promega), following the manufacturer’s protocol. Bioluminescence imaging was measured using the IVIS imager. The percentage of cell viability (mean ± SEM) at each dose was calculated against the respective DMSO control. The IC50 values were determined from the sigmoidal dose-response curves using GraphPad Prism.
# [2] = system: MRC5 (human lung fibroblast cell with wild-type p53); test: Cell viability assay (CellTiterGlo), MRC5 normal cells; type: cell-based; conditions: Homo sapiens, MRC5, 72 h, read-out: IC50 values, MRC5 (WT)
# Method: as §1
# as §1, with “2 p53-dependent inhibition of” for “1 PG3 inhibits”, “is only observed at specific concentrations. (A–J)” for “and growth in a p53-indepent manner. (A–E)”, “ZMC1, CP-313908, APR-246, Ellipticine, Nutalin-3a” for “PG3, PG3-Oc (Oc), obatoclax (Ob), prodigiosin (P)”
# as §2
# HT29 (R273H) = test: Cell viability assay (CellTiterGlo), HT29; type: cell-based, human; conditions: Homo sapiens, HT-29; 72 h, CellTiterGlo
# Method: as §1
# as §1, with “2 p53-dependent inhibition of” for “1 PG3 inhibits”, “is only observed at specific concentrations. (A–J)” for “and growth in a p53-indepent manner. (A–E)”, “ZMC1, CP-313908, APR-246, Ellipticine, Nutalin-3a” for “PG3, PG3-Oc (Oc), obatoclax (Ob), prodigiosin (P)”
# as §2
# HCT116 (R175H) = test: Cell viability assay (CellTiterGlo), HCT116 R175H; type: cell-based, human; conditions: Homo sapiens, HCT-116; 72 h, CellTiterGlo
# Method: as §1
# as §1, with “2 p53-dependent inhibition of” for “1 PG3 inhibits”, “is only observed at specific concentrations. (A–J)” for “and growth in a p53-indepent manner. (A–E)”, “ZMC1, CP-313908, APR-246, Ellipticine, Nutalin-3a” for “PG3, PG3-Oc (Oc), obatoclax (Ob), prodigiosin (P)”
# as §2
# [3] = cited from earlier work
# [4] = system: HT29, TOV-112D, isogenic HCT116 cell lines, HFF-1 and MRC5; test: Cell viability assay, panel of cancer cell lines and normal cells (results in words); type: cell-based, human; conditions: 10 μM; all cell lines tested and normal cells
# Method: as §1, with “2 p53-dependent inhibition of” for “1 PG3 inhibits”, “is only observed at specific concentrations. (A–J)” for “and growth in a p53-indepent manner. (A–E)”, “ZMC1, CP-313908, APR-246, Ellipticine, Nutalin-3a” for “PG3, PG3-Oc (Oc), obatoclax (Ob), prodigiosin (P)”
# as §2
# ATF4 = test: Western blot, ATF4 induction; type: cell-based, human; conditions: five cancer cell lines, 24 h
# Method: (§3) Figure 4 Activation of ATF4 and up-regulation of typical p53 target genes. (A–E) Western blot analysis of p53 protein levels and upregulation of ATF4, PUMA, DR5 and p21. Cells were treated for 24 h with indicated compounds, concentrations and cell lines. Abbreviations: S.E.: Short exposure; L.E.: Long exposure.
# (§4) After treatment, protein lysates were collected for Western blot analysis. A total of 15 μg of protein was used for SDS-PAGE. After primary and secondary antibody incubations, the signal was detected by a chemiluminescence detection kit, imaged by Syngene (Imgen Technologies). Antibodies for NAG-1 (GDF15) and P53 were from Santa Cruz Biotechnology; for caspase 8, cleaved caspase 8, caspase 9, caspase 3, cleavage PARP, eIF2α, p-eIF2α (Ser51), CHOP, ATF4, DR5, and PUMA were from Cell Signaling Technology. Noxa and p21 were from Calbiochem. Ran was from BD Biosciences.
# [5] = system: HFF-1 (human foreskin fibroblast cell with wild-type p53); test: Cell viability assay (CellTiterGlo), HFF-1 normal cells; type: cell-based; conditions: Homo sapiens, HFF-1; 72 h, CellTiterGlo, normal cells; read-out: IC50 values, HFF-l (WT)
# Method: as §1
# as §1, with “2 p53-dependent inhibition of” for “1 PG3 inhibits”, “is only observed at specific concentrations. (A–J)” for “and growth in a p53-indepent manner. (A–E)”, “ZMC1, CP-313908, APR-246, Ellipticine, Nutalin-3a” for “PG3, PG3-Oc (Oc), obatoclax (Ob), prodigiosin (P)”
# as §2
# PUMA = test: Western blot, PUMA induction; type: cell-based, human; conditions: five cell lines, 24 h
# Method: as §3, §4
# [6] = system: SW480 cells carrying a p53-responsive luciferase reporter; test: p53-responsive reporter assay; type: cell-based, human
# Method: SW480 cells carrying a p53-responsive luciferase reporter were used for assay of functional restoration of mutant p53. Cells were seeded in 96-well plates (5 × 10^4 cells/well) and were treated with compounds indicated for 6 and 15 h, respectively. Then, D-luciferin was added to each well with final concentration 100 μg/mL, and cells were imaged by using an IVIS Imaging System to detect luciferase activity.
# p53-mutant SW480 human colon cancer cells, stably expressing a p53-responsive luciferase reporter, were used to assay functional restoration p53 pathway-dependent transcription in mutant p53-expressing tumor cells. Cells were seeded in 96-well plates (5 × 10^4 cells/well) and were treated with small-molecule compounds for 6 and 15 h, respectively. Then, D-luciferin was added to each well at a final concentration of 100 μg/mL, and cells were imaged by using an IVIS Imaging System (Xenogen) to detect luciferase activity.
# TOV-112D (R175H) = test: Cell viability assay (CellTiterGlo), TOV-112D; type: cell-based, human; conditions: Homo sapiens, TOV112D; 72 h, CellTiterGlo; read-out: IC50 values, TOV-1120 (R175H) (converted)
# Method: as §1
# as §1, with “2 p53-dependent inhibition of” for “1 PG3 inhibits”, “is only observed at specific concentrations. (A–J)” for “and growth in a p53-indepent manner. (A–E)”, “ZMC1, CP-313908, APR-246, Ellipticine, Nutalin-3a” for “PG3, PG3-Oc (Oc), obatoclax (Ob), prodigiosin (P)”
# as §2
# HCT116 (WT) = test: Cell viability assay (CellTiterGlo), HCT116 WT; type: cell-based, human; conditions: Homo sapiens, HCT-116; 72 h, CellTiterGlo
# Method: as §1
# as §1, with “2 p53-dependent inhibition of” for “1 PG3 inhibits”, “is only observed at specific concentrations. (A–J)” for “and growth in a p53-indepent manner. (A–E)”, “ZMC1, CP-313908, APR-246, Ellipticine, Nutalin-3a” for “PG3, PG3-Oc (Oc), obatoclax (Ob), prodigiosin (P)”
# as §2
# p53 protein = test: Western blot, p53 protein levels; type: cell-based, human
# Method: Cells were treated for 24 h with indicated compounds, concentrations and cell lines. Abbreviations: S.E.: Short exposure; L.E.: Long exposure.
# as §4
# p21 = test: Western blot, p21 induction; type: cell-based, human; conditions: five cell lines, 24 h
# Method: as §3, §4
# HCT116 (P53−/−) = test: Cell viability assay (CellTiterGlo), HCT116 p53-/-; type: cell-based, human; conditions: Homo sapiens, HCT-116; 72 h, CellTiterGlo
# Method: as §1
# as §1, with “2 p53-dependent inhibition of” for “1 PG3 inhibits”, “is only observed at specific concentrations. (A–J)” for “and growth in a p53-indepent manner. (A–E)”, “ZMC1, CP-313908, APR-246, Ellipticine, Nutalin-3a” for “PG3, PG3-Oc (Oc), obatoclax (Ob), prodigiosin (P)”
# as §2
# DR5 = test: Western blot, DR5 induction; type: cell-based, human; conditions: five cell lines, 24 h
# Method: as §3, §4
# ALAS1, UROD = test: Western blot, heme biosynthesis enzymes; type: cell-based, human; conditions: HT29, 20 hours
# Method: Figure 8 Inhibition of heme biosynthesis leads to upregulation of ATF4. (A) HT29 cells were treated with SA and ONC201 for 20 hours. Western blotting was performed using the indicated antibodies. (B) HT29 cells were transfected with siCtrl, siHRI, siClpX, siALAS1, siClpX/siALAS1 and siClpX/siALAS1/siHRI for 48 hours. (C) HT29 cells were transfected with siCtrl, siLonP1, siClpP for 24 or 48 hours respectively, and then treated with ONC201 for 24 hours. (D) Proposed model of ONC201-induced cell apoptosis through ClpP/ALAS1/HRI/ATF4 axis. (E, F) Silencing of ClpP in HCT116 p53^−/− and MDA-MB-468 cells and then treated with PG3, PG3-Oc and ONC201. Western blot was performed using indicated antibodies.
# as §4
# (§5) Supplementary Figure 2: ROS and NO are not responsible for PG3-induced HRI activation. (A, B) cells were pre-treated
# (§6) with ZnPP, L-NMMA, SA and NAC for 2 hours respectively, and then ONC201 or PG3 was added to the medium for 24 hour treatment.
# (§7) Western blot was performed using indicated antibodies.
# (§8) (1 picture or pasted object on this page, not shown here)
# [7] = system: GCN2, PKR, eIF2α, ATF4, CHOP in HT29 cells; test: Western blot, ISR kinases / eIF2α / ATF4 / CHOP; type: cell-based, human; conditions: HT29, 20 hours; comparable to ONC201
# Method: Figure 7 PG3 induces upregulation of ATF4 through ISR via HRI. (A) HT29 cells were treated with PG3, GSK2606414, TG and ONC201 respectively, or co-treatment with PG3/GSK2606414, PG3/TG, and PG3/ONC201 for 15 h. (B) MEF, MEF^PERK−/− and MEF^GCN2−/− cells were treated with PG3 and ONC201 for 16 hours. (C) HT29 cells were transfected with siControl, siPKR, siHRI and siPKR/siHRI for 24 hours and then treated with PG3 for 16 hours. (D) HCT116 p53^−/− cells were transfected with siControl and siHRI for 24 hours and then treated with PG3 for 16 hours. (E) HCT116 p53^−/− cells were treated with PG3 and ONC201 for indicated times. (F) PANC1-sgCtrl, -sgHRI and -sgPKR cell lines were treated with PG3 and imipridones (ONC201, ONC206 and ONC212) for 16 hours. Western blot was performed using indicated antibodies. (G) Proposed model of PG3-induced cell apoptosis through HRI/ATF4/PUMA axis. Abbreviation: L.E.: Long exposure.
# as §4, §5, §6, §7, §8
compound,measurement,setting,value
COC1=CC(c2cc3ccccc3[nH]2)=N/C1=C\c1[nH]c(C)cc1C [Obatoclax],"potency compared among PG3-Oc, prodigiosin and Obatoclax",[1],same potency
CCCCCCCCOC(=O)CCc1c(C)[nH]c(/C=C2\N=C(c3ccc[nH]3)C=C2OC)c1C [PG3-Oc],"potency compared among PG3-Oc, prodigiosin and Obatoclax",[1],same potency
same,IC50,[2],78 nM
same,IC50,HT29 (R273H),31 nM
same,IC50,HCT116 (R175H),52 nM
same,stability in vivo,[3],unstable in vivo
same,toxicity at 10 μM,[4],too toxic
same,upregulation of ATF4,ATF4,induce upregulation of ATF4
same,IC50,[5],306 nM
same,upregulation of PUMA,PUMA,consistently induce upregulation
same,p53-responsive reporter activity,"[6]; 1.11 μM, 6 hour and 15 hour time points",do not activate reporter activity
same,p53-responsive reporter activity,"[6]; 10 μM, 6 hours",activation
same,IC50,TOV-112D (R175H),38 nM
same,IC50,HCT116 (WT),47 nM
same,wild-type p53 protein level,"p53 protein; HCT116, 24 h",do not upregulate expression
same,endogenous mutant p53 R273H protein level,"p53 protein; HT29, 24 h",no effects on stability
same,endogenous mutant p53 R175H protein level,"p53 protein; TOV-112D, 24 h",no effects on stability
same,exogenous mutant p53 R175H protein level,"p53 protein; engineered HCT116-R175H cells, 24 h",stabilize
same,upregulation of p21,p21,consistently induce upregulation
same,IC50,HCT116 (P53−/−),62 nM
same,upregulation of DR5,DR5,consistently induce upregulation
"CC(=O)CC(=O)CCC(=O)O [SA, Succinylacetone]",ALAS1 protein level,"ALAS1, UROD",upregulation of ALAS1
same,"eIF2α phosphorylation, ATF4 and CHOP",[7],eIF2α phosphorylation and upregulation of ATF4 and CHOP
prodigiosin,"potency compared among PG3-Oc, prodigiosin and Obatoclax",[1],same potency
